According to patent US6528518B2, “Treatment of depression with kappa receptor antagonists” (The McLean Hospital Corporation, priority 2000, dated 2003):
“Also recorded” adds a separate entry of the source.

How the values were obtained:
rats [1] = test: Cocaine place conditioning after HSV gene transfer into the NAc; format: in vivo, rat; conditions: cocaine 5.0 mg/kg IP, FIG. 2B
Method: Place conditioning was performed in a three compartment apparatus. During screening (day 0), rats were placed in the small (12×18×33 cm) central compartment and were allowed to explore the entire apparatus for 30 minutes. The compartments differed in floor texture, wall striping, and lighting. Rats showing no baseline preference were used for the study. Rats received bilateral microinjections (2.0 μl per side) at AP+1.7 mm, Lat±2.3 mm, and DV 6.8 mm. Injections were made over 10 minutes using a 26 gauge needle.
Behavioral testing began on day 3 after vector injection. On the first conditioning trial of each day, rats received saline (1 ml/kg, i.p.) and were confined to one of the large (24×18×33 cm) side compartments of the apparatus. After three hours, rats received cocaine (1.25 mg/kg, i.p.) and were confined to the other side compartment. Three types of conditioning session were used: a one hour pairing session where the animals were placed immediately into the apparatus immediately after treatment for one hour; 15 minute pairing session where the animals were placed immediately into the apparatus immediately after treatment for 15 minutes; or a delayed pairing session where the animals were placed in the apparatus for one hour following a 15 minute delay from drug exposure. […]

[2] = following systemic administration; cited from earlier work
rats [3] = test: Forced swim test (FST), latency to become immobile on re-test; format: in vivo, rat; conditions: for Latencies to become immobile in the FST: kappa antagonist given ICV (norBNI 5.0 or 20 μg), FIG. 5 and 6A; for Latencies to become immobile on the re-test day in the FST: standard antidepressants vs vehicle (0 mg/kg), FIG. 3A
Method: Another symptom of clinical depression that can be modeled in rats is despair, a feeling of hopelessness. Symptoms of despair can be induced in rats using the forced swim test (FST), a highly validated model used to study antidepressant treatments.
The FST is a two day procedure in which rats swim under conditions in which escape is not possible. On the first day, the rats are forced to swim for 15 minutes. The rats initially search for an escape from the water, but eventually adopt a posture of immobility in which they make only the movements necessary to keep their heads above water. Upon re-testing one day later, latencies to become immobile—an indicator of how rapidly the rats “give up” in response to a familiar stressor—are decreased, which is inferred as despair. Standard antidepressants such as desipramine (DMI) and fluoxetine (FLX) extend latencies to become immobile. Drug efficacy in this animal model is predictive of antidepressant efficacy in humans.
CREB-mediated increases in dynorphin expression within the NAc underlie the decreases in the pleasurable effects of cocaine in the place conditioning paradigm: blockade of brain kappa opioid receptors (on which dynorphin acts) eliminates CREB-induced aversion to cocaine. To determine whether disruption of dynorphin function also eliminates CREB-induced despair in the FST, brain kappa receptors were blocked with either norBNI (nor-binaltorphimine) or GNTI (5′-guanidinyl-17-(cyclopropylmethyl)-6,7-dehydro-4,5α-epoxy-3,14-dihydroxy-6,7-2′,3′-indolomorphinan). […] As with CREB-induced anhedonia, dynorphin is critically involved in CREB-induced despair. Furthermore, they indicate that disruption of CREB function in this region may have antidepressant actions.

rats [4] = test: Locomotor activity in automated activity chambers 24 hours after first FST; conditions: for Locomotor effects / non-specific motor function: after ICV injection, vs vehicle control, FIG. 6B; for Activity: high doses, vs vehicle (0 mg/kg), FIG. 3B
Method: To examine the effects of gene transfer and antidepressant therapy on locomotor activity, groups of rats were tested for 1 hour in automated activity chambers 24 hours after the first FST.

[5] = humans; cited from earlier work

Structure (SMILES)	Penetration of the blood-brain-barrier [2]	Latencies to become immobile in the FST (rats [3])	Locomotor effects / non-specific motor function (rats [4])	Latencies to become immobile on the re-test day in the FST (rats [3])	Activity (rats [4])	also measured
COC(=O)[C@H]1[C@@H](OC(=O)c2ccccc2)C[C@@H]2CC[C@H]1N2C [cocaine]	–	–	–	–	–	Place preference, time spent in cocaine-associated environments (rats [1]; HSV-CREB group): no effect; Place preference, time spent in cocaine-associated environments (rats [1]; HSV-mCREB and vehicle groups): ~600 s
NC(N)=Nc1ccc2[nH]c3c(c2c1)C[C@@]1(O)[C@H]2Cc4ccc(O)c5c4[C@@]1(CCN2CC1CC1)[C@H]3O5 [GNTI, 5′-guanidinyl-17-(cyclopropylmethyl)-6,7-dehydro-4,5α-epoxy-3,14-dihydroxy-6,7-2′,3′-indolomorphinan]	neither compound can penetrate the blood-brain-barrier	significantly longer latencies than the control group; also recorded: dose-dependently increased latencies to become immobile	Neither compound affected non-specific motor function	–	–	Potency relative to norBNI for increasing latencies to become immobile in the FST (rats [3]; ICV, FIG. 6A): roughly equipotent to norBNI
Oc1ccc2c3c1O[C@H]1c4[nH]c5c(c4C[C@@]4(O)[C@@H](C2)N(CC2CC2)CC[C@]314)C[C@@]1(O)[C@H]2Cc3ccc(O)c4c3[C@@]1(CCN2CC1CC1)[C@H]5O4 [norBNI, nor-binaltorphimine]	neither compound can penetrate the blood-brain-barrier	dose-dependently increased latencies to become immobile; also recorded: significantly longer latencies than the control group	Neither compound affected non-specific motor function	–	–	–
CNCCCN1c2ccccc2CCc2ccccc21 [DMI, desipramine]	–	–	–	increased	decreased by high doses	–
CN1Cc2c(N)cccc2C(c2ccccc2)C1 (stereo not drawn) [Nomifensine]	–	–	–	–	–	Adverse reactions [5]: caused lethal allergic reactions in some people; Antidepressant efficacy in the clinic [5]: clinically effective antidepressant
CNCCC(Oc1ccc(C(F)(F)F)cc1)c1ccccc1 (stereo not drawn) [FLX, fluoxetine]	–	–	–	increased	decreased by high doses	–
